Legend:
Test in all cases: Eurofins kinase panel
Format in all cases: biochemical
Conditions in all cases: read-out: Inhibition rate (%)
CDK5/p25(h) = target: T1, CDK5/p25(h) (Homo sapiens, UniProt Q00535)
T1 construct: purchased Eurofins (KinaseProfiler)

CaMKIγ(h) = target: T2, CaMKIγ(h) (Homo sapiens, UniProt Q96NX5)
T2 construct: purchased Eurofins (KinaseProfiler)

Plk4(h) = target: T3, Plk4(h) (Homo sapiens, UniProt O00444)
T3 construct: purchased Eurofins (KinaseProfiler)
T3 sequence (O00444 1-970): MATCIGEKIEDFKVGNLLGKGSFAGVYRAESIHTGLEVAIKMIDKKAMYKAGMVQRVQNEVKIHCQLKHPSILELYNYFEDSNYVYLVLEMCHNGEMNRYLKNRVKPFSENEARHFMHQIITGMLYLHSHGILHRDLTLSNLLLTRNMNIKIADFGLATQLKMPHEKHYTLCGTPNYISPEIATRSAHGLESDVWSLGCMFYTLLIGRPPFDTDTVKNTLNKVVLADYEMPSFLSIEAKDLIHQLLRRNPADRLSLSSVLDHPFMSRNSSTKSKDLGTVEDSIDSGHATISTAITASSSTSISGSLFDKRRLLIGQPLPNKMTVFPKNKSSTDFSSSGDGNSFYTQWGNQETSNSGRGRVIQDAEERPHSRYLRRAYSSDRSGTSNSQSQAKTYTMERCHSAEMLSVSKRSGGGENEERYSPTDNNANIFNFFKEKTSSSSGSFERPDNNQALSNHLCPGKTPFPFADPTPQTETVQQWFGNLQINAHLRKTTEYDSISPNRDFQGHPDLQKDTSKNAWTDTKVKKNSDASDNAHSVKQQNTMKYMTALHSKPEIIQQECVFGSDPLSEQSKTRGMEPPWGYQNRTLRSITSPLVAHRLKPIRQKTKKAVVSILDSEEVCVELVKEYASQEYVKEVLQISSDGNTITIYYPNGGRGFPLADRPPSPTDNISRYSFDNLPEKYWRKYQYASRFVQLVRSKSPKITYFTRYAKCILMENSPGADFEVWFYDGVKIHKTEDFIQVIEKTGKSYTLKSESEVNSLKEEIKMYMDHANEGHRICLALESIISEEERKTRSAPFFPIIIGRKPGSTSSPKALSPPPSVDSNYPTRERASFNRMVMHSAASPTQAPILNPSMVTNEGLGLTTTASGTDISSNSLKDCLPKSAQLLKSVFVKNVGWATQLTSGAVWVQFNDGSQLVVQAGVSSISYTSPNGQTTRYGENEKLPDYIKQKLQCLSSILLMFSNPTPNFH

Ron(h) = target: T4, Ron(h) (Homo sapiens, UniProt Q04912)
T4 construct: purchased Eurofins (KinaseProfiler)
T4 sequence (Q04912 25-1400): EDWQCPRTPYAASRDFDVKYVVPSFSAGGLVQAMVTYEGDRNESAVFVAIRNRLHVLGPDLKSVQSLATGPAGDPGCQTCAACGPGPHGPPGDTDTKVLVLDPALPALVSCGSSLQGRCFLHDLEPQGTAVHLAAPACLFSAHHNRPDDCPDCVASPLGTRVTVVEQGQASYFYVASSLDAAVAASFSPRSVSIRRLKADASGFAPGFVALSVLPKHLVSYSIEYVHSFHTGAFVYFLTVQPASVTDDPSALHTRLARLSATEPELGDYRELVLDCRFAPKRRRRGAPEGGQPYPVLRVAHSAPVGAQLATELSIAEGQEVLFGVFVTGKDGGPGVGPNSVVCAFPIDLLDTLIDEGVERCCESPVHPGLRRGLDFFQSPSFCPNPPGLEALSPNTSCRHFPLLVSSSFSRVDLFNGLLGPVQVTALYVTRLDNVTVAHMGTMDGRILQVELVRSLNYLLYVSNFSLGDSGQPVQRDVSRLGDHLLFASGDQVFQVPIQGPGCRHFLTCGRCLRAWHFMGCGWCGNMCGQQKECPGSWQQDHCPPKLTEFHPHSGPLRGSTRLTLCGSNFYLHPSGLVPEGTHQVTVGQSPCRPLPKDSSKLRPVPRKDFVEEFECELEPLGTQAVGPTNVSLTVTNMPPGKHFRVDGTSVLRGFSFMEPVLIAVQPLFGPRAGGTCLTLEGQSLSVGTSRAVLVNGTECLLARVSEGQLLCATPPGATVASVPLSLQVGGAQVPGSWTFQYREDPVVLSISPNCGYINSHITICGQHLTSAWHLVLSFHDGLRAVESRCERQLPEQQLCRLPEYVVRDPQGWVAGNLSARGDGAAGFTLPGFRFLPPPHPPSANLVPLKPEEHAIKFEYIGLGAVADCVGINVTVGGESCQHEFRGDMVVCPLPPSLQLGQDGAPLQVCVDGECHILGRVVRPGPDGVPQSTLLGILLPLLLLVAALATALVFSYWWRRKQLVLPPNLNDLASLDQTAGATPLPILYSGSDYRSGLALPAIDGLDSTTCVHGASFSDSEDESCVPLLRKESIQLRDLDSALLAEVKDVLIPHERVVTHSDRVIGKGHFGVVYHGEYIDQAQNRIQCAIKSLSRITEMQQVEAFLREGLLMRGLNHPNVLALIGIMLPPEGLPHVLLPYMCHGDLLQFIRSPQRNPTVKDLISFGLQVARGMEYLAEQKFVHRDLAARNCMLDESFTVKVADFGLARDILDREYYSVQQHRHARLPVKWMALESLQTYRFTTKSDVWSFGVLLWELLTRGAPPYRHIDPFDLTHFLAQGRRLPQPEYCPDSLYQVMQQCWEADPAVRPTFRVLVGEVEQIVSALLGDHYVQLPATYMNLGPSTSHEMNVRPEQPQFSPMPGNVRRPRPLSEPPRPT

GRK7(h) = target: T5, GRK7(h) (Homo sapiens, UniProt Q8WTQ7)
T5 construct: purchased Eurofins (KinaseProfiler)
T5 sequence (Q8WTQ7 1-553): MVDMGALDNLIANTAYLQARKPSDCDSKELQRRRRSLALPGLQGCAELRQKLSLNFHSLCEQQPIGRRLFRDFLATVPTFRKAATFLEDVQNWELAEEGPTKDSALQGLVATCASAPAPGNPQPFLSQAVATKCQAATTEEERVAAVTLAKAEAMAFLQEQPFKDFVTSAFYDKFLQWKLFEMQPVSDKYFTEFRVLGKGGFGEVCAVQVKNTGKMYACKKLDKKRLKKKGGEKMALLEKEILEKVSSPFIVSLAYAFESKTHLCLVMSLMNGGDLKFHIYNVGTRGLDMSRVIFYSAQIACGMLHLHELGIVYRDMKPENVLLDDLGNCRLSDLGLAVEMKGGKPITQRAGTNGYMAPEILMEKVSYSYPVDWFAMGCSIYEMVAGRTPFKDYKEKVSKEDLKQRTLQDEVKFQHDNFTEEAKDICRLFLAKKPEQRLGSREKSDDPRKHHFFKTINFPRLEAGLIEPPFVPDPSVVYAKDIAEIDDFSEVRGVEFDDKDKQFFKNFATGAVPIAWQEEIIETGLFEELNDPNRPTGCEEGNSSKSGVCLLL

NEK6(h) = target: T6, NEK6(h) (Homo sapiens, UniProt Q9HC98)
T6 construct: purchased Eurofins (KinaseProfiler)
T6 sequence (Q9HC98 whole entry): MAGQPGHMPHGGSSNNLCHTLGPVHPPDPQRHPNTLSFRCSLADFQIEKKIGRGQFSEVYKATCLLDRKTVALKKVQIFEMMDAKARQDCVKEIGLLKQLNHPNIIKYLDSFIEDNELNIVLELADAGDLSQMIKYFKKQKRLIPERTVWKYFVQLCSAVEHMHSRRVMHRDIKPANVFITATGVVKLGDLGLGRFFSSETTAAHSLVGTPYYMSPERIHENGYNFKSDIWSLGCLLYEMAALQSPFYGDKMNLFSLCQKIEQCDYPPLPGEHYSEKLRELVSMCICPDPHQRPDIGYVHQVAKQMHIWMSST

T2 sequence (Q96NX5 whole entry): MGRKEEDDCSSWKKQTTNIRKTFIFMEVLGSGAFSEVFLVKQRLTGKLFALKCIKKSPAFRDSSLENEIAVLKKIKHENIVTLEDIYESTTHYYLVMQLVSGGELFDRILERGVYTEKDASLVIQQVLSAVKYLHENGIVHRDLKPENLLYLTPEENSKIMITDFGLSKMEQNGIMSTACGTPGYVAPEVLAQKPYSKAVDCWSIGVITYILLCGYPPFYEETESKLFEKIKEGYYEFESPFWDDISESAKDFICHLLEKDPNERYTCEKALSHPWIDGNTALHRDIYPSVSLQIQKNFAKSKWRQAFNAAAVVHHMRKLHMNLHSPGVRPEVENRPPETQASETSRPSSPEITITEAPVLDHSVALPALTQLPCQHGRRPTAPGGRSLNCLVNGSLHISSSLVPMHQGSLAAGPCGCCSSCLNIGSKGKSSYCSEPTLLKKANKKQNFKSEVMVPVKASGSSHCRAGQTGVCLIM
T1 sequence (Q00535 whole entry): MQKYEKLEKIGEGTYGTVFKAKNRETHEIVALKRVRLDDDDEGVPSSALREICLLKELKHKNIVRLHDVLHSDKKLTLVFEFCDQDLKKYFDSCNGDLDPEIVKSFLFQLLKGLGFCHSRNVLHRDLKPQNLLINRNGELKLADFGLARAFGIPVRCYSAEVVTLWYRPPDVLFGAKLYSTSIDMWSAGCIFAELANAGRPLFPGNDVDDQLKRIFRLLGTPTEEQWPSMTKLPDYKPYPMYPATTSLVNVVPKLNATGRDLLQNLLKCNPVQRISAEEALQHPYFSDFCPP
T1 sequence (Q15078 99-307 partner limits assumed): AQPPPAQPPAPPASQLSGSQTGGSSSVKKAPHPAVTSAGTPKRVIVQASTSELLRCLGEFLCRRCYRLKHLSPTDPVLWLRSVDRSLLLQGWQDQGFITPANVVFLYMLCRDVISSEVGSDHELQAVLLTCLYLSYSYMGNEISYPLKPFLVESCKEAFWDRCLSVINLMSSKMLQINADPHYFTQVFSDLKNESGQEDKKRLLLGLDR

Compound: COc1cc(OC)c(Cl)c(-c2ccc3c(NC(=O)c4ccc(N5CCNC(C)(C)C5)cc4)n[nH]c3n2)c1Cl [3D185]
- inhibition at 0.01 µM (CDK5/p25(h); 10 nM): 10%
- inhibition at 0.1 µM (CDK5/p25(h); 100 nM): 4%
- inhibition at 1 µM (CDK5/p25(h); 1000 nM): 3%
- inhibition at 0.01 µM (CaMKIγ(h); 10 nM): -1%
- inhibition at 0.1 µM (CaMKIγ(h); 100 nM): 3%
- inhibition at 1 µM (CaMKIγ(h); 1000 nM): 41%
- inhibition at 0.01 µM (Plk4(h); 10 nM): -18%
- inhibition at 0.1 µM (Plk4(h); 100 nM): -20%
- inhibition at 1 µM (Plk4(h); 1000 nM): -17%
- inhibition at 0.01 µM (Ron(h); 10 nM): -16%
- inhibition at 0.1 µM (Ron(h); 100 nM): -10%
- inhibition at 1 µM (Ron(h); 1000 nM): 28%
- inhibition at 0.01 µM (GRK7(h); 10 nM): 9%
- inhibition at 0.1 µM (GRK7(h); 100 nM): 16%
- inhibition at 1 µM (GRK7(h); 1000 nM): 27%
- inhibition at 0.01 µM (NEK6(h); 10 nM): -7%
- inhibition at 0.1 µM (NEK6(h); 100 nM): 4%
- inhibition at 1 µM (NEK6(h); 1000 nM): 2%

Reference: PMC6704710, “Preclinical evaluation of 3D185, a novel potent inhibitor of FGFR1/2/3 and CSF-1R, in FGFR-dependent and macrophage-dominant cancer models” (Journal of Experimental & Clinical Cancer Research : CR, 2019)
